In ChEMBL document CHEMBL3091278 (Bioorg Med Chem Lett, 2013):

assay: Inhibition of Clostridium perfringens carbonic anhydrase preincubated for 15 mins by stopped flow CO2 hydration assay

Compound	Ki [mM]
CC(=O)Nc1nnc(S(N)(=O)=O)s1 [ACETAZOLAMIDE]	4.9e-05
CCN(CC)C(=S)S [DITIOCARB SODIUM]	0.36
O=[As](O)(O)c1ccccc1 [PHENYLARSONIC ACID]	0.007
OB(O)c1ccccc1 [PHENYLBORONIC ACID]	0.075
[N-]=[N+]=[N-] [SODIUM AZIDE]	4.2
O=C([O-])O.[Na+] [SODIUM BICARBONATE]	2.1
O=S([O-])O.[Na+] [SODIUM BISULFITE]	4.9
[Br-].[Na+] [SODIUM BROMIDE]	21.5
O=C([O-])[O-].[Na+].[Na+] [SODIUM CARBONATE]	0.65
S=C(S)S [SODIUM CARBONOTRITHIOATE]	1
[Cl-].[Na+] [SODIUM CHLORIDE]	4.3
[F-].[Na+] [SODIUM FLUORIDE]	4.8
S [SODIUM HYDROSULFIDE]	4
O=S(=O)(O)ONOS(=O)(=O)O [SODIUM IMINODISULFATE]	4.9
[I-].[Na+] [SODIUM IODIDE]	63.4
N=C=S [SODIUM ISOTHIOCYANATE]	0.83
O=[N+]([O-])[O-].[Na+] [SODIUM NITRATE]	4.6
O=NO [SODIUM NITRITE]	4.1
[O-][Cl+3]([O-])([O-])O [SODIUM PERCHLORATE]	> 200
O=S(=O)(O)OOS(=O)(=O)O [SODIUM PERSULFATE]	9.2
O=P(O)(O)OP(=O)(O)O [SODIUM PYROPHOSPHATE]	2.7
O=[Se](=O)(O)O [SODIUM SELENATE]	0.47
O=S(=O)([O-])[O-].[Na+].[Na+] [SODIUM SULFATE ANHYDROUS]	7.9
O=[Te](=O)(O)O [SODIUM TELLURATE]	3.3
O=BOB(O)OB(O)OB=O [SODIUM TETRABORATE]	2.5
F[B-](F)(F)F.[Na+] [SODIUM TETRAFLUOROBORATE]	> 200
NS(=O)(=O)O [SULFAMATE]	0.009
